Source: US20020111274A1, “1-alkyl-3-[1-(substituted phenyl) benzotriazol-6-yl] uracils” (BASF Aktiengesellschaft, priority 2000, published 2002)

Experiments:
Design in all cases: scale not given here
ABUTH Velvetleaf [1] = assay: Preemergence herbicidal evaluation, ABUTH; type: in vivo, Abutilon theophrasti, Medic.; settings: preemergence
Outline: (§1)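 Preemergence soil spray: aqueous acetone, ~0.013–0.800 kg/ha, applied right after sowing (seed/potting-soil mix over ~1 in soil). Greenhouse, routine watering. Scored 4–5 wk post-treatment on a rating scale.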

ZEAMX Corn, Field [2] = assay: Postemergence herbicidal evaluation, ZEAMX; type: in vivo, Zea mays, L. (Sammel-Bezeichnung); settings: postemergence spray, rated about two-three weeks after treatment
Outline: (§2)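 Seedlings grown about two weeks were sprayed with compound in 80/20 acetone/water containing 1.0% methylated seed oil, at the equivalent of about 0.006 to 0.400 kg/ha, through a nozzle at 40 psi. Plants were kept in the greenhouse and rated visually about two to three weeks after treatment.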

[3] = system: TRZAWR Wheat, Winter, cv Riband; assay: Postemergence herbicidal evaluation, TRZAWR; type: in vivo, Triticum aestivum; settings: postemergence spray, rated about two-three weeks after treatment
Outline: as §2

AMBEL Ragweed, Common [4] = assay: Postemergence herbicidal evaluation, AMBEL; type: in vivo, Ambrosia artemisifolia, L.; settings: postemergence spray, rated about two-three weeks after treatment
Outline: as §2

ABUTH Velvetleaf [5] = assay: Postemergence herbicidal evaluation, ABUTH; type: in vivo, Abutilon theophrasti, Medic.; settings: postemergence spray, rated about two-three weeks after treatment
Outline: as §2

AMBEL Ragweed, Common [6] = assay: Preemergence herbicidal evaluation, AMBEL; type: in vivo, Ambrosia artemisifolia, L.; settings: preemergence
Outline: as §1

[7] = system: TRZAWR Wheat, Winter, cv Riband; assay: Preemergence herbicidal evaluation, TRZAWR; type: in vivo, Triticum aestivum; settings: preemergence
Outline: as §1

[8] = system: CHEAL Lambsquarters, Common; assay: Postemergence herbicidal evaluation, CHEAL; type: in vivo, Chenopodium album, L.; settings: postemergence spray, rated about two-three weeks after treatment
Outline: as §2

GALAP Galium [9] = assay: Preemergence herbicidal evaluation, GALAP; type: in vivo, Galium aparine; settings: preemergence
Outline: as §1

[10] = system: CHEAL Lambsquarters, Common; assay: Preemergence herbicidal evaluation, CHEAL; type: in vivo, Chenopodium album, L.; settings: preemergence
Outline: as §1

[11] = system: IPOHE Morningglory, Ivyleaf; assay: Preemergence herbicidal evaluation, IPOHE; type: in vivo, Ipomoea hederacea, (L.) Jacq.; settings: preemergence
Outline: as §1

CASOB Sicklepod [12] = assay: Postemergence herbicidal evaluation, CASOB; type: in vivo, Cassia obtusifolia, L.; settings: postemergence spray, rated about two-three weeks after treatment
Outline: as §2

ECHOG Barnyardgrass [13] = assay: Postemergence herbicidal evaluation, ECHOG; type: in vivo, Echinochloa crus-galli, (L.) Beau; settings: postemergence spray, rated about two-three weeks after treatment
Outline: as §2

[14] = system: IPOHE Morningglory, Ivyleaf; assay: Postemergence herbicidal evaluation, IPOHE; type: in vivo, Ipomoea hederacea, (L.) Jacq.; settings: postemergence spray, rated about two-three weeks after treatment
Outline: as §2

GLXMAW Soybean, Williams [15] = assay: Preemergence herbicidal evaluation, GLXMAW; type: in vivo, Glycine max, (L.) Merr. cv Williams; settings: preemergence
Outline: as §1

ORYSAT Rice, Tebonnet [16] = assay: Postemergence herbicidal evaluation, ORYSAT; type: in vivo, Oryza sativa, (L.); settings: postemergence spray, rated about two-three weeks after treatment
Outline: as §2

SETVI Foxtail, Green [17] = assay: Postemergence herbicidal evaluation, SETVI; type: in vivo, Setaria viridis, (L.) Beau; settings: postemergence spray, rated about two-three weeks after treatment
Outline: as §2

SETVI Foxtail, Green [18] = assay: Preemergence herbicidal evaluation, SETVI; type: in vivo, Setaria viridis, (L.) Beau; settings: preemergence
Outline: as §1

ORYSAT Rice, Tebonnet [19] = assay: Preemergence herbicidal evaluation, ORYSAT; type: in vivo, Oryza sativa, (L.); settings: preemergence
Outline: as §1

ECHOG Barnyardgrass [20] = assay: Preemergence herbicidal evaluation, ECHOG; type: in vivo, Echinochloa crus-galli, (L.) Beau; settings: preemergence
Outline: as §1

ZEAMX Corn, Field [21] = assay: Preemergence herbicidal evaluation, ZEAMX; type: in vivo, Zea mays, L. (Sammel-Bezeichnung); settings: preemergence
Outline: as §1

GLXMAW Soybean, Williams [22] = assay: Postemergence herbicidal evaluation, GLXMAW; type: in vivo, Glycine max, (L.) Merr. cv Williams; settings: postemergence spray, rated about two-three weeks after treatment
Outline: as §2

GALAP Galium [23] = assay: Postemergence herbicidal evaluation, GALAP; type: in vivo, Galium aparine; settings: postemergence spray, rated about two-three weeks after treatment
Outline: as §2

CASOB Sicklepod [24] = assay: Preemergence herbicidal evaluation, CASOB; type: in vivo, Cassia obtusifolia, L.; settings: preemergence
Outline: as §1

C=CCOc1ccc(C)cc1-n1nnc2cc(F)c(-n3c(=O)cc(C(F)(F)F)n(C)c3=O)cc21 [Example 42]
ABUTH herbicidal rating (ABUTH Velvetleaf [1]; rate 0.016 kg/ha): 7.0 | ABUTH herbicidal rating (ABUTH Velvetleaf [1]; rate 0.032 kg/ha): 9.0 | ABUTH herbicidal rating (ABUTH Velvetleaf [1]; rate 0.062 kg/ha): 9.0 | ABUTH herbicidal rating (ABUTH Velvetleaf [1]; rate 0.125 kg/ha): 9.0 | Postemergence herbicidal rating ZEAMX (ZEAMX Corn, Field [2]; 0.008 kg/ha): 5.0 | Postemergence herbicidal rating ZEAMX (ZEAMX Corn, Field [2]; 0.016 kg/ha): 5.0 | Postemergence herbicidal rating ZEAMX (ZEAMX Corn, Field [2]; 0.032 kg/ha): 4.5 | Postemergence herbicidal rating ZEAMX (ZEAMX Corn, Field [2]; 0.062 kg/ha): 5.0 | Postemergence herbicidal rating TRZAWR ([3]; 0.008 kg/ha): 2.5 | Postemergence herbicidal rating TRZAWR ([3]; 0.016 kg/ha): 2.5 | Postemergence herbicidal rating TRZAWR ([3]; 0.032 kg/ha): 3.0 | Postemergence herbicidal rating TRZAWR ([3]; 0.062 kg/ha): 4.0 | Postemergence herbicidal rating AMBEL (AMBEL Ragweed, Common [4]; 0.008 kg/ha): 7.0 | Postemergence herbicidal rating AMBEL (AMBEL Ragweed, Common [4]; 0.016 kg/ha): 7.0 | Postemergence herbicidal rating AMBEL (AMBEL Ragweed, Common [4]; 0.032 kg/ha): 7.0 | Postemergence herbicidal rating AMBEL (AMBEL Ragweed, Common [4]; 0.062 kg/ha): 9.0 | Postemergence herbicidal rating ABUTH (ABUTH Velvetleaf [5]; 0.008 kg/ha): 7.0 | Postemergence herbicidal rating ABUTH (ABUTH Velvetleaf [5]; 0.016 kg/ha): 9.0 | Postemergence herbicidal rating ABUTH (ABUTH Velvetleaf [5]; 0.032 kg/ha): 9.0 | Postemergence herbicidal rating ABUTH (ABUTH Velvetleaf [5]; 0.062 kg/ha): 9.0 | AMBEL herbicidal rating (AMBEL Ragweed, Common [6]; rate 0.016 kg/ha): 0.0 | AMBEL herbicidal rating (AMBEL Ragweed, Common [6]; rate 0.032 kg/ha): 0.0 | AMBEL herbicidal rating (AMBEL Ragweed, Common [6]; rate 0.062 kg/ha): 1.0 | AMBEL herbicidal rating (AMBEL Ragweed, Common [6]; rate 0.125 kg/ha): 5.0 | TRZAWR herbicidal rating ([7]; rate 0.016 kg/ha): 0.0 | TRZAWR herbicidal rating ([7]; rate 0.032 kg/ha): 0.0 | TRZAWR herbicidal rating ([7]; rate 0.062 kg/ha): 0.0 | TRZAWR herbicidal rating ([7]; rate 0.125 kg/ha): 1.0 | Postemergence herbicidal rating CHEAL ([8]; 0.008 kg/ha): 2.0 | Postemergence herbicidal rating CHEAL ([8]; 0.016 kg/ha): 6.0 | Postemergence herbicidal rating CHEAL ([8]; 0.032 kg/ha): 7.0 | Postemergence herbicidal rating CHEAL ([8]; 0.062 kg/ha): 7.0 | GALAP herbicidal rating (GALAP Galium [9]; rate 0.016 kg/ha): 0.0 | GALAP herbicidal rating (GALAP Galium [9]; rate 0.032 kg/ha): 0.0 | GALAP herbicidal rating (GALAP Galium [9]; rate 0.062 kg/ha): 0.0 | GALAP herbicidal rating (GALAP Galium [9]; rate 0.125 kg/ha): 0.0 | CHEAL herbicidal rating ([10]; rate 0.016 kg/ha): 9.0 | CHEAL herbicidal rating ([10]; rate 0.032 kg/ha): 9.0 | CHEAL herbicidal rating ([10]; rate 0.062 kg/ha): 9.0 | CHEAL herbicidal rating ([10]; rate 0.125 kg/ha): 9.0 | IPOHE herbicidal rating ([11]; rate 0.016 kg/ha): 0.0 | IPOHE herbicidal rating ([11]; rate 0.032 kg/ha): 0.0 | IPOHE herbicidal rating ([11]; rate 0.062 kg/ha): 0.0 | IPOHE herbicidal rating ([11]; rate 0.125 kg/ha): 6.0 | Postemergence herbicidal rating CASOB (CASOB Sicklepod [12]; 0.008 kg/ha): 0.0 | Postemergence herbicidal rating CASOB (CASOB Sicklepod [12]; 0.016 kg/ha): 0.0 | Postemergence herbicidal rating CASOB (CASOB Sicklepod [12]; 0.032 kg/ha): 4.0 | Postemergence herbicidal rating CASOB (CASOB Sicklepod [12]; 0.062 kg/ha): 4.0 | Postemergence herbicidal rating ECHCG (ECHOG Barnyardgrass [13]; 0.008 kg/ha): 0.0 | Postemergence herbicidal rating ECHCG (ECHOG Barnyardgrass [13]; 0.016 kg/ha): 1.0 | Postemergence herbicidal rating ECHCG (ECHOG Barnyardgrass [13]; 0.032 kg/ha): 1.0 | Postemergence herbicidal rating ECHCG (ECHOG Barnyardgrass [13]; 0.062 kg/ha): 1.0 | Postemergence herbicidal rating IPOHE ([14]; 0.008 kg/ha): 9.0 | Postemergence herbicidal rating IPOHE ([14]; 0.016 kg/ha): 9.0 | Postemergence herbicidal rating IPOHE ([14]; 0.032 kg/ha): 9.0 | Postemergence herbicidal rating IPOHE ([14]; 0.062 kg/ha): 9.0 | GLXMAW herbicidal rating (GLXMAW Soybean, Williams [15]; rate 0.016 kg/ha): 0.0 | GLXMAW herbicidal rating (GLXMAW Soybean, Williams [15]; rate 0.032 kg/ha): 3.0 | GLXMAW herbicidal rating (GLXMAW Soybean, Williams [15]; rate 0.062 kg/ha): 3.0 | GLXMAW herbicidal rating (GLXMAW Soybean, Williams [15]; rate 0.125 kg/ha): 5.0 | Postemergence herbicidal rating ORYSAT (ORYSAT Rice, Tebonnet [16]; 0.008 kg/ha): 2.0 | Postemergence herbicidal rating ORYSAT (ORYSAT Rice, Tebonnet [16]; 0.016 kg/ha): 2.5 | Postemergence herbicidal rating ORYSAT (ORYSAT Rice, Tebonnet [16]; 0.032 kg/ha): 2.5 | Postemergence herbicidal rating ORYSAT (ORYSAT Rice, Tebonnet [16]; 0.062 kg/ha): 2.5 | Postemergence herbicidal rating SETVI (SETVI Foxtail, Green [17]; 0.008 kg/ha): 0.0 | Postemergence herbicidal rating SETVI (SETVI Foxtail, Green [17]; 0.016 kg/ha): 2.0 | Postemergence herbicidal rating SETVI (SETVI Foxtail, Green [17]; 0.032 kg/ha): 9.0 | Postemergence herbicidal rating SETVI (SETVI Foxtail, Green [17]; 0.062 kg/ha): 9.0 | SETVI herbicidal rating (SETVI Foxtail, Green [18]; rate 0.016 kg/ha): 3.0 | SETVI herbicidal rating (SETVI Foxtail, Green [18]; rate 0.032 kg/ha): 7.0 | SETVI herbicidal rating (SETVI Foxtail, Green [18]; rate 0.062 kg/ha): 9.0 | SETVI herbicidal rating (SETVI Foxtail, Green [18]; rate 0.125 kg/ha): 9.0 | ORYSAT herbicidal rating (ORYSAT Rice, Tebonnet [19]; rate 0.016 kg/ha): 0.0 | ORYSAT herbicidal rating (ORYSAT Rice, Tebonnet [19]; rate 0.032 kg/ha): 0.0 | ORYSAT herbicidal rating (ORYSAT Rice, Tebonnet [19]; rate 0.062 kg/ha): 1.0 | ORYSAT herbicidal rating (ORYSAT Rice, Tebonnet [19]; rate 0.125 kg/ha): 1.0 | ECHCG herbicidal rating (ECHOG Barnyardgrass [20]; rate 0.016 kg/ha): 1.0 | ECHCG herbicidal rating (ECHOG Barnyardgrass [20]; rate 0.032 kg/ha): 3.0 | ECHCG herbicidal rating (ECHOG Barnyardgrass [20]; rate 0.062 kg/ha): 3.0 | ECHCG herbicidal rating (ECHOG Barnyardgrass [20]; rate 0.125 kg/ha): 7.0 | ZEAMX herbicidal rating (ZEAMX Corn, Field [21]; rate 0.016 kg/ha): 0.0 | ZEAMX herbicidal rating (ZEAMX Corn, Field [21]; rate 0.032 kg/ha): 0.0 | ZEAMX herbicidal rating (ZEAMX Corn, Field [21]; rate 0.062 kg/ha): 1.0 | ZEAMX herbicidal rating (ZEAMX Corn, Field [21]; rate 0.125 kg/ha): 4.0 | Postemergence herbicidal rating GLXMAW (GLXMAW Soybean, Williams [22]; 0.008 kg/ha): 5.0 | Postemergence herbicidal rating GLXMAW (GLXMAW Soybean, Williams [22]; 0.016 kg/ha): 5.5 | Postemergence herbicidal rating GLXMAW (GLXMAW Soybean, Williams [22]; 0.032 kg/ha): 7.0 | Postemergence herbicidal rating GLXMAW (GLXMAW Soybean, Williams [22]; 0.062 kg/ha): 7.0 | Postemergence herbicidal rating GALAP (GALAP Galium [23]; 0.008 kg/ha): 1.0 | Postemergence herbicidal rating GALAP (GALAP Galium [23]; 0.016 kg/ha): 1.0 | Postemergence herbicidal rating GALAP (GALAP Galium [23]; 0.032 kg/ha): 1.0 | Postemergence herbicidal rating GALAP (GALAP Galium [23]; 0.062 kg/ha): 1.0 | CASOB herbicidal rating (CASOB Sicklepod [24]; rate 0.016 kg/ha): 0.0 | CASOB herbicidal rating (CASOB Sicklepod [24]; rate 0.032 kg/ha): 0.0 | CASOB herbicidal rating (CASOB Sicklepod [24]; rate 0.062 kg/ha): 0.0 | CASOB herbicidal rating (CASOB Sicklepod [24]; rate 0.125 kg/ha): 1.0
